Several values for one entry are separate records, joined by “and”; a condition that tells them apart may be missing. Identical values can stand only once. Entries after “also recorded” stand apart in the source; their conditions may differ.
Tests used:
Rat acute toxicity study = type: in vivo, Sprague Dawley laboratory male rats
Method: The study was conducted as: • 1. Eight 10-week Sprague Dawley laboratory male rats (˜260 g each) were randomly selected into two groups (n=4), with group 1 for control and group 2 for B7-treatment. • 2. Day 0, injection of B7 drug. The intramuscular (IM) injection was vehicle for group 1, and 4 mg/kg B7 per rat for group 2, with 0.15 mL of volume per rat, to the left thigh region. The B7 was dissolved in vehicle containing 30% DMSO and 50% propylene glycol (PG), and 20% 20 mM Tris·HCl, pH 8.0. • 3. Days 1-7 observation of rats with daily body weight and temperature measurement and making records of any abnormal behavior. • 4. Day 7 necropsy: Euthanize the rats with CO2, immediately followed by blood sample collection from heart. Conduct postmortem rat gross-anatomic pathology analysis (brain, heart, lung, liver, kidney, spleen). • 5. Conduct clinical pathology analysis (CBC/Chemistry by IDDEX Bioanalytics) for the collected blood samples.

[1] = MTT cytotoxicity assay in PAMs; type: cell-based, pig; conditions: pig, porcine alveolar macrophages (PAMs), 24 h incubation, read-out: LC50, MTT assay
Method: (§1) The cytotoxicity of selected screening compounds was determined in porcine alveolar macrophages (PAMs) the principal host cell of productive PRRSV infection. Briefly, various concentrations of the compounds were added to PAMs seeded in 24-well plates and incubated for 24 h. Then 50 μl of the MTT assay labeling reagent (In Vitro Toxicology Assay Kit, MTT based, Sigma-Aldrich) were added to each well and incubated for 4 h before 500 μl of the solubilization solution was added into each well to fully dissolve the formazan crystal by overnight incubation. The absorbance of samples was measured using a spectrophotometry microplate reader at 600 nm. PAMs treated with DMSO served as the controls.

[2] = system: porcine alveolar macrophages (PAMs); test: MTT cytotoxicity assay in PAMs; type: cell-based, pig
Method: as §1

[3] = system: PRRSV strains VR-2332, SDSU73, NADC30 (Type II), or Lelystad (Type I); test: qRT-PCR for PRRSV RNA in PAMs infected by different strains; type: cell-based; conditions: 15 μM; 4 h pre-treatment, 24 h post
Method: Total RNA was extracted from PAMs infected with PRRSV using RNeasy Mini Kit (Qiagen, Germantown, MD) according to the manufacturer's instruction. RNA concentrations were measured using a Nanodrop spectrophotometer (Thermo Fisher Scientific). GAPDH was used as a housekeeping gene for gene expression normalization. Data were processed with the software associated with ABI 7500.
For PRRSV infection of PAM cells, PAMs were seeded one day prior to infection. Control cells were treated with DMSO and test cells were treated with the selected screening compounds (5-20 μM) for 4 h before inoculation, during the 1 h PRRSV inoculation, and for 24 h after inoculation. Cells were inoculated with VR-2332, SDSU73, NADC30 or Lelystad PRRSV at MOI=0.1 for 1 h. The 24 h cell medium supernatant was stored at −80° C. until use.
The inhibitory effect of B7 was further tested on multiple strains of PRRSV. […] This inhibitory effect is further confirmed by viral titration results for the culture media of infected PAMs, with 2.8-3.1 log reduction of viral titers across the 3 Type II PRRSV strains and 2.2 log reduction of viral titer for the type I strain (Lelystad) by 15 μM B7 treatment (FIG. 5D). Thus, compound B7 indeed inhibits the PRRSV infection of PAMs. […]

[4] = rat, IM 4 mg/kg, Day 7 blood, mean n=4

Cc1cc(F)ccc1S(=O)(=O)Nc1nc2ccccc2nc1Nc1cccc(S(=O)(=O)N2CCOCC2)c1 [Compound B7, 4-fluoro-2-methyl-N-[3-(3-morpholin-4-ylsulfonylanilino)quinoxalin-2-yl]benzenesulfonamide]
Lipemia Index (Rat acute toxicity study; rat, IM 4 mg/kg, Day 7 blood): Normal | ALB/GLOB ratio (Rat acute toxicity study; [4]): 1.2 | ALP (Rat acute toxicity study; [4]): 277.5 U/L | ALT (Rat acute toxicity study; [4]): 95.5 U/L | AST (Rat acute toxicity study; [4]): 210.3 U/L and 210.25 U/L | Albumin (Rat acute toxicity study; [4]): 3.5 g/dL | BUN (Rat acute toxicity study; [4]): 16.8 mg/dL | BUN/Creatinine Ratio (Rat acute toxicity study; [4]): 76.7 | Basophil (Rat acute toxicity study; [4]): 13.5 µL⁻¹ | Basophils (%) (Rat acute toxicity study; [4]): 0.3% | Bicarbonate TCO2 (Rat acute toxicity study; [4]): 32.8 mmol/L | Bilirubin - Conjugated (Rat acute toxicity study; [4]): 0.0 mg/dL | Bilirubin - Unconjugated (Rat acute toxicity study; [4]): 0.1 mg/dL | Calcium (Rat acute toxicity study; [4]): 11.8 mg/dL | Chloride (Rat acute toxicity study; [4]): 97.0 mmol/L | Cholesterol (Rat acute toxicity study; [4]): 76.0 mg/dL | Creatine kinase (Rat acute toxicity study; [4]): 585.5 U/L | Creatinine (Rat acute toxicity study; [4]): 0.2 mg/dL | Eosinophil (Rat acute toxicity study; [4]): 19.0 µL⁻¹ | Eosinophils (%) (Rat acute toxicity study; [4]): 0.5% | Globulin (Rat acute toxicity study; [4]): 2.9 g/dL | Glucose (Rat acute toxicity study; [4]): 175.5 mg/dL | HCT (Rat acute toxicity study; [4]): 50.1% and 50.075% | HGB (Rat acute toxicity study; [4]): 14.4 g/dL and 14.35 g/dL | Lymphocyte (Rat acute toxicity study; [4]): 3188.0 µL⁻¹ | Lymphocytes (%) (Rat acute toxicity study; [4]): 83.1% and 83.125% | MCH (Rat acute toxicity study; [4]): 18.9 pg | MCHC (Rat acute toxicity study; [4]): 28.7 g/dL | MCV (Rat acute toxicity study; [4]): 65.8 fL | Monocyte (Rat acute toxicity study; [4]): 179.5 µL⁻¹ | Monocytes (%) (Rat acute toxicity study; [4]): 4.8% | NA/K Ratio (Rat acute toxicity study; [4]): 22.3 | Neutrophil (Rat acute toxicity study; [4]): 425.0 µL⁻¹ | Neutrophil (%) (Rat acute toxicity study; [4]): 11.4% and 11.35% | Phosphorus (Rat acute toxicity study; [4]): 13.0 mg/dL | Potassium (Rat acute toxicity study; [4]): 6.7 mmol/L | RBC (Rat acute toxicity study; [4]): 7.6 M/μL L | Sodium (Rat acute toxicity study; [4]): 145.8 mmol/L | Total Bilirubin (Rat acute toxicity study; [4]): 0.1 mg/dL | Total Protein (Rat acute toxicity study; [4]): 6.4 g/dL | WBC (Rat acute toxicity study; [4]): 3.8 K/μL | blood cell counts, B7-treatment versus control (Rat acute toxicity study; single IM 4 mg/kg, Day 7): no obvious change for blood cell counts | blood chemistry analysis, B7 versus control (Rat acute toxicity study; single IM 4 mg/kg, Day 7): only ALP and AST were changed slightly with statistical significances | gross pathology, kidney (Rat acute toxicity study; single IM 4 mg/kg, Day 7 necropsy, T4 = B7 rat): cortical surface of kidney had multiple, mild tan discolorations | gross pathology, liver (Rat acute toxicity study; single IM 4 mg/kg, Day 7 necropsy, T = B7 rats, C = control rats): multifocal to coalescing mild pale tan discoloration on the surface of liver of C2, T3 and T4 | daily weight gain and body temperature (Rat acute toxicity study; single IM 4 mg/kg, Days 1-7): normal daily weigh gain and body temperature | signs of abnormality during the 7-day study (Rat acute toxicity study; single IM 4 mg/kg, n=4): No signs of abnormality were observed | CC50 at 24 h [1]: 81.7 µM | concentrations well-tolerated by PAMs (MTT assay) ([2]; 24 h): below 25 μM | IC50 ([2]; Sus scrofa, Macrophage, 24 h incubation, read-out: IC50, cell viability in MTT assay): 81.7 µM | viral RNA detected in infected PAMs (qRT-PCR), all PRRSV strains [3]: significantly decreased the viral RNA; also recorded: significantly inhibited the infection

From patent US12569495B2, “Inhibitors of porcine reproductive and respiratory syndrome virus” (UNIVERSITY OF CONNECTICUT, priority 2020, dated 2026)
